Source: BindingDB's records for doi:10.1002/(SICI)1098-2396(200002)35:2<79::AID-SYN1>3.0.CO;2-X (Institut De Recherches Servier, 2000)
“And” between values parts separate entries of the source, which are not always exact repeats. Equal values may be shown once. Each block holds one molecule with its values, some of them ahead of it.

Assays:
D(2) dopamine receptor = D(2) dopamine receptor (Homo sapiens, UniProt P14416)
[1] = target: 5-hydroxytryptamine receptor 1D (Homo sapiens, UniProt P28221)
[2] = target: 5-hydroxytryptamine receptor 1B (Cavia porcellus, UniProt O08892)
[3] = target: T1, 5-hydroxytryptamine receptor 3A (Mus musculus, UniProt P23979)
T1 sequence (P23979 whole entry): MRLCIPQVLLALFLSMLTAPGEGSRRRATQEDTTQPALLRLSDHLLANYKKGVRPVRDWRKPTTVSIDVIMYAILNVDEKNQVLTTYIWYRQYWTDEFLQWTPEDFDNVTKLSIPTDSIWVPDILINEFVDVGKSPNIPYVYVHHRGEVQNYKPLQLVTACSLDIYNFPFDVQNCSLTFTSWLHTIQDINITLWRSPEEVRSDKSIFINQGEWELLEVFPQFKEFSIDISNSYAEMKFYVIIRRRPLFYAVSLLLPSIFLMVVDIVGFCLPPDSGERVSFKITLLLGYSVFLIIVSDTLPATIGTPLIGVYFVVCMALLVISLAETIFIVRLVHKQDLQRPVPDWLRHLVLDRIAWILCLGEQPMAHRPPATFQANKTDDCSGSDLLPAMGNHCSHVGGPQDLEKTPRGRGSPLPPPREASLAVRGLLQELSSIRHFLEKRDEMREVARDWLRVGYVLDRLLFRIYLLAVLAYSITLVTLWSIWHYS

[4] = target: T2, Alpha-2A adrenergic receptor (Homo sapiens, UniProt P08913)
T2 sequence (P08913 whole entry): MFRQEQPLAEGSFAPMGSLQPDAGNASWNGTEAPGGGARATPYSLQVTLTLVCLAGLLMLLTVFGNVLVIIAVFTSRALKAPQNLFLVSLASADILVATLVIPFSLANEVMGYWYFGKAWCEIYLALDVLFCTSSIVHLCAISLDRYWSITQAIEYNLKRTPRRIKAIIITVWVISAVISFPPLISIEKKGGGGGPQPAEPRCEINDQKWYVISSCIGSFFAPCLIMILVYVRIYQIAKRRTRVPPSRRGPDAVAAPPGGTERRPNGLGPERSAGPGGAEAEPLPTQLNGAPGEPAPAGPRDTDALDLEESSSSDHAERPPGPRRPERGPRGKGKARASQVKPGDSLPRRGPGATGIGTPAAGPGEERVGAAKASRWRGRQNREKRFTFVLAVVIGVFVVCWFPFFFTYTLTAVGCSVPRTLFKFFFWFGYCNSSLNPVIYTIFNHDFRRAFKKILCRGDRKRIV

[5] = target: T3, 5-hydroxytryptamine receptor 2C (Sus scrofa, UniProt K7GSR7)
T3 sequence (K7GSR7 whole entry): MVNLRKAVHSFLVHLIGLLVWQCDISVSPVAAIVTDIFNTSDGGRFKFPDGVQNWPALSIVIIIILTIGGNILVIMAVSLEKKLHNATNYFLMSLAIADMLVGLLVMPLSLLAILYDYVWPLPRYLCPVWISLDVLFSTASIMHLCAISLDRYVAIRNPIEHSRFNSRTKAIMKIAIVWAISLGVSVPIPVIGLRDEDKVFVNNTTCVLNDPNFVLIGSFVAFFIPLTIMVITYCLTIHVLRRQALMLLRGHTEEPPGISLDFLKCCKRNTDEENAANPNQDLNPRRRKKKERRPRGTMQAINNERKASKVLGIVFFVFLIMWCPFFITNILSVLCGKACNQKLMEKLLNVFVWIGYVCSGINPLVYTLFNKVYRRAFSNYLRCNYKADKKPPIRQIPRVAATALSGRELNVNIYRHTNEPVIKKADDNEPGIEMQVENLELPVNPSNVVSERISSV

Chain of 5-hydroxytryptamine receptor 1B (O08892 whole entry): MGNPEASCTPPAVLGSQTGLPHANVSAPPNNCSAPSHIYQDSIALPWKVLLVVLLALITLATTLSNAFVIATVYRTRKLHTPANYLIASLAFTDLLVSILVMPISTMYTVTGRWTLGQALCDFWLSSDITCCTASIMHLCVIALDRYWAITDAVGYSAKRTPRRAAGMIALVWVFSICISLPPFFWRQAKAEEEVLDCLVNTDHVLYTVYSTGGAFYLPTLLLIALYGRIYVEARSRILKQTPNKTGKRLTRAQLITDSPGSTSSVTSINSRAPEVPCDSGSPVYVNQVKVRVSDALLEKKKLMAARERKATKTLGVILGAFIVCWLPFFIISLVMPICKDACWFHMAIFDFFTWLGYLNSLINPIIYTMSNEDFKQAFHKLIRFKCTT
Chain of 5-hydroxytryptamine receptor 1D (P28221 whole entry): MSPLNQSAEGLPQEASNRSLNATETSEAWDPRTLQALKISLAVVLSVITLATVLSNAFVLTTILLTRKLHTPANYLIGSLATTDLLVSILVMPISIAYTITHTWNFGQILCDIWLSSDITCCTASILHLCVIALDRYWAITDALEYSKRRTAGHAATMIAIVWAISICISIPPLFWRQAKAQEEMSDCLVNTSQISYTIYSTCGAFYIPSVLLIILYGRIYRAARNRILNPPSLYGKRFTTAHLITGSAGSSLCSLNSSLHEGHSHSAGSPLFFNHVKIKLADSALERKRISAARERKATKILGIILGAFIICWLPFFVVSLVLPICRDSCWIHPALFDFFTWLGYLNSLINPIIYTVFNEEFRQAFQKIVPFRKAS
Chain of D(2) dopamine receptor (P14416 whole entry): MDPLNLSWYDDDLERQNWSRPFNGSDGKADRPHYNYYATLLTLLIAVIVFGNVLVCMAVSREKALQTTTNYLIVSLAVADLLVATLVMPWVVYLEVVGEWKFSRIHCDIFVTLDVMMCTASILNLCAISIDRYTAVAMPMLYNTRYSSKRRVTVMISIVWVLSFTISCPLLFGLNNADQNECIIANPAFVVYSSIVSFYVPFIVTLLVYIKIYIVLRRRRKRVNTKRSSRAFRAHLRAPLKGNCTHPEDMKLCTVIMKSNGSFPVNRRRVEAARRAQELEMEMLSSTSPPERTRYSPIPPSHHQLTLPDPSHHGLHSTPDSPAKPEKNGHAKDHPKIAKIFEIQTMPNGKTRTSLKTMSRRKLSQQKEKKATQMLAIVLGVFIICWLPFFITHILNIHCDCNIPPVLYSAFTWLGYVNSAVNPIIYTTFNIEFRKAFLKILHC

SMILES: COC(=O)[C@@H]1[C@H]2C[C@H]3c4[nH]c5ccccc5c4CCN3C[C@@H]2CC[C@@H]1O [yohimbic acid methyl ester]
Ki (D(2) dopamine receptor): 0.398 µM
Ki [1]: 0.0199 µM and 0.0251 µM
Ki [2]: 0.0501 µM

Ki [3]: 0.00398 µM
SMILES: Cc1nccn1CC1CCc2c(c3ccccc3n2C)C1=O (configuration not stated) [NSC_68647]

Ki [4]: 0.001 µM
SMILES: COC1(C2=NCCN2)COc2ccccc2O1 (configuration not stated) [RX821002]

SMILES: NCCc1c[nH]c2ccccc12 [1H-indole-3-ethanamine]
Ki [5]: 0.0794 µM

SMILES: NCCc1c[nH]c2ccc(O)cc12 [[3H]-5-HT]
Ki [2]: 0.00251 µM
